Reference: patent publication US6734182B2, “Aryl sulfonamides and sulfamide derivatives and uses thereof” (Synaptic Pharmaceutical Corporation, priority 1995, dated 2004)

Tests used:
human 5HT1Dα receptor = target: T1, human 5HT1Dα receptor (Homo sapiens, UniProt P28221); test: Binding to human 5HT1Dα receptor ([3H]serotonin); details: cloned human receptor
T1 construct: expressed in transfected cells

[1] = target: T2, human dopamine D3 receptor (Homo sapiens, UniProt P35462); test: Binding to human dopamine D3 receptor ([3H]spiperone); details: cloned human receptor
T2 construct: expressed in transfected cells; host or cells: COS-7 cells, transient
T2 sequence (P35462 whole entry): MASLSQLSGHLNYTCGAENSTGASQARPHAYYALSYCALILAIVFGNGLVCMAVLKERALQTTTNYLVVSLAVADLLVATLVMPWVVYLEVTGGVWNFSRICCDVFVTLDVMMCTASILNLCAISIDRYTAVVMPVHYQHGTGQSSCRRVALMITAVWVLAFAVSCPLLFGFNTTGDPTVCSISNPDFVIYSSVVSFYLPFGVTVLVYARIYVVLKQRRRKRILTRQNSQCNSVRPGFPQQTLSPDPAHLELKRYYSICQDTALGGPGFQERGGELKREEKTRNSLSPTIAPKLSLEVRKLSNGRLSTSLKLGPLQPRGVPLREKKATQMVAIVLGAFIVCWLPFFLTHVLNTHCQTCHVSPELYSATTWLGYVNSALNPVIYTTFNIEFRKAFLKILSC

human α1a receptor = target: T3, human α1a receptor (Homo sapiens, UniProt P35348); test: Binding to cloned human α1a adrenergic receptor
T3 construct: expressed in transfected cells
T3 sequence (P35348 whole entry): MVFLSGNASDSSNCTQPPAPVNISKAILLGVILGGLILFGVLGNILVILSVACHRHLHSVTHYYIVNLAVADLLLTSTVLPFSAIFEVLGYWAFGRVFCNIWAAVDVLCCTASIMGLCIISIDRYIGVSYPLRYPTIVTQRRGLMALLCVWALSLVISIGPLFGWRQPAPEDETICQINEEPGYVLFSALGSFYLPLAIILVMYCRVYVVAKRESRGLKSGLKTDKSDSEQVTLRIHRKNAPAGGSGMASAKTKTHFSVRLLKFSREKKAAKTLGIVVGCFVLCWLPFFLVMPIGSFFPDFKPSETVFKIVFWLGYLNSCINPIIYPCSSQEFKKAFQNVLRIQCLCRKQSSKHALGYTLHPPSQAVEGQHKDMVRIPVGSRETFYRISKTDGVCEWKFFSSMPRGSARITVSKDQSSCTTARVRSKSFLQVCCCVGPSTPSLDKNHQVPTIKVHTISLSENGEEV

human Y2 receptor = target: T4, human Y2 receptor (Homo sapiens, UniProt P49146); test: Radioligand binding to cloned human Y2 receptor (125I-PYY); details: cloned human Y2, stably transfected cells, read-out: Binding Affinity (K1 (nM) vs. 125I-PYY) Human Receptor Y2
T4 construct: expressed in transfected cells
T4 sequence (P49146 1-381): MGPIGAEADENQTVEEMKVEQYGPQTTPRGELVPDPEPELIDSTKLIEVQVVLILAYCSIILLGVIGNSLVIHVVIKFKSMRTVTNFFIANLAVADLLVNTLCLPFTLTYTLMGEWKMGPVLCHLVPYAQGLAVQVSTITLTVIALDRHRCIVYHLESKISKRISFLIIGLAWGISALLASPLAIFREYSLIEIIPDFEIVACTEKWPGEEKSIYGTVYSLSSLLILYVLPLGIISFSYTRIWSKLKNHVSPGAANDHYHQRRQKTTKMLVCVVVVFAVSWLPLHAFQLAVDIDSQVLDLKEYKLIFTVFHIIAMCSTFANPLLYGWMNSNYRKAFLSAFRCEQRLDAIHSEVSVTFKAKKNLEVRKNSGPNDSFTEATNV
Procedure: (§1) Human Y1, human Y2, and rat Y5 receptors were co-transfected with a G-418 resistant gene into the human embryonic kidney 293 cell line by a calcium phosphate transfection method (Cullen, 1987). Stably transfected cells were selected with G-418. Human Y4 and human Y5 receptors were similarly transfected into mouse fibroblast LM(tk−) cells and NIH-3T3 cells.
(§2) Binding of the compounds of the present invention to the human Y1, Y2, Y4 and Y5 receptors was evaluated using stably transfected 293 or LM(tk−) cells as described above. Stably transfected cell lines which may be used for binding assays include, for example, for the human Y1 receptor, 293-hY1-5 (deposited Jun. 4, 1996, under ATCC Accession No. CRL-12121), for the human Y2 receptor, 293-hY2-10 (deposited Jan. 27, 1994, under ATCC Accession No. CRL-11537), for the human Y4 receptor, L-hY4-3 (deposited Jan. 11, 1995, under ATCC Accession No. CRL-11779), and for the human Y5 receptor, L-hY5-7 (deposited Nov. 15, 1995, under ATCC Accession No. CRL-11995).
(§3) Membranes were harvested from COS-7 cells 48 hours after transient transfection. Adherent cells were washed twice in ice-cold phosphate buffered saline (138 mM NaCl, 8.1 mM Na2HPO4, 2.5 mM KCl, […], 0.9 mM CaCl2, 0.5 mM MgCl2, pH 7.4) and lysed by sonication in ice-cold sonication buffer (20 mM Tris-HCl, 5 mM EDTA, pH 7.7). Large particles and debris were cleared by low speed centrifugation (200 x g, 5 min, 4° C.). Membranes were collected from the supernatant fraction by centrifugation (32,000 x g, 18 min, […] ), washed with ice-cold hypotonic buffer, and collected again by centrifugation (32,000 x g, 18 min, 4° C.). […] Protein concentration was measured by the Bradford method (Bradford, 1976) using Bio-Rad Reagent, with bovine serum albumin as a standard. Membranes were held on ice for up to one hour and used fresh, or flash-frozen and stored in liquid nitrogen.
(§4) Membranes were prepared similarly from 293, LM(tk−), and NIH-3T3 cells. To prepare membranes from baculovirus infected cells, 2×10^7 Sf21 cells were grown in 150 mm tissue culture dishes and infected with a high-titer stock of hY5BB3. Cells were incubated for 2-4 days at 27° C., no CO2 be fore harvesting and membrane preparation as described above.

[2] = test system: food intake in food-deprived rats; test: Food intake in food-deprived rats (24 h food deprivation); type: in vivo, rat; set-up: concentration or dose not given beside the values; details: rats after 24 h food deprivation; two hours after administration of test compound
human Y4 receptor = target: T5, human Y4 receptor (Homo sapiens, UniProt P50391); test: Radioligand binding to cloned human Y4 receptor (125I-PYY); details: cloned human Y4, stably transfected cells, read-out: Binding Affinity (K1 (nM) vs. 125I-PYY) Human Receptor Y4
T5 construct: expressed in transfected cells
T5 sequence (P50391 whole entry): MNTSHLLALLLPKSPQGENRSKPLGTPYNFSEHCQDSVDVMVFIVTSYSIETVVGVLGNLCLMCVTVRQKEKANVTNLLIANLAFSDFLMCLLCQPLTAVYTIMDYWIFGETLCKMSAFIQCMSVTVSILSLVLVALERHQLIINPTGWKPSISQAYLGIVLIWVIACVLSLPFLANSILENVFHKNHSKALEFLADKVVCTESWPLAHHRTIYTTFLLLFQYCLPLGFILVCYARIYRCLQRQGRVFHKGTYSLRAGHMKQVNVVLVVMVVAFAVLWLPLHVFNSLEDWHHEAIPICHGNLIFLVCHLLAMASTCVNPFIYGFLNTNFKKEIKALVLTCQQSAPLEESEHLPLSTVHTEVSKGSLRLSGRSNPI
Procedure: as §1, §2, §3, §4

human 5HT7 receptor = target: T6, human 5HT7 receptor (Homo sapiens, UniProt P34969); test: Binding to human 5HT7 receptor; details: cloned human receptor
T6 construct: expressed in transfected cells
T6 sequence (P34969 whole entry): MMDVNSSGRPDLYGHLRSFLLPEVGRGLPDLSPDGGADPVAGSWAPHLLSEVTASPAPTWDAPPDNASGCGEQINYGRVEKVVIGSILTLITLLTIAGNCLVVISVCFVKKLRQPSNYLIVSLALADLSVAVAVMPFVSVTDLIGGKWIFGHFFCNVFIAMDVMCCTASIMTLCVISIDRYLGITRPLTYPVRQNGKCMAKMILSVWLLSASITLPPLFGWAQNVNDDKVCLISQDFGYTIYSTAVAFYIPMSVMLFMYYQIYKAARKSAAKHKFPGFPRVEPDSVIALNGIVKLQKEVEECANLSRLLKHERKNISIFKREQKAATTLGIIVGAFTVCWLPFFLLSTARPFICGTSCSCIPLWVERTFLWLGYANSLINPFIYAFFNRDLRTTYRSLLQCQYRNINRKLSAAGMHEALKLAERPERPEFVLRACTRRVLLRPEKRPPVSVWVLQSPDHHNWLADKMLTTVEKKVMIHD

human 5HT1F receptor = target: T7, human 5HT1F receptor (Homo sapiens, UniProt P30939); test: Binding to human 5HT1F receptor ([3H]serotonin); details: cloned human receptor
T7 construct: expressed in transfected cells
T7 sequence (P30939 1-366): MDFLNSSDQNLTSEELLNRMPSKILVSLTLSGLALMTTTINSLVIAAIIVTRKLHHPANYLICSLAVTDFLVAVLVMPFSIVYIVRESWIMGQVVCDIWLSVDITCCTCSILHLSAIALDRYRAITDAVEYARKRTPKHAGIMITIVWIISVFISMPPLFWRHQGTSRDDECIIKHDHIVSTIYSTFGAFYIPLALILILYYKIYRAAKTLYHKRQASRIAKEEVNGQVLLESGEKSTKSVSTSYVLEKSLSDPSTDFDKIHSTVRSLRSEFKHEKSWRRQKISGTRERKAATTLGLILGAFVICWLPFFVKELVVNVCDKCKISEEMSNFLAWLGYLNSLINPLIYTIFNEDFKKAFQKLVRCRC
Procedure: 5HT1Dα, 5HT1Dβ, 5HT1E, 5HT1F Receptors: LM(tk−) clonal cell lines stably transfected with the genes encoding each of these 5HT receptor subtypes were prepared as described above. The cell line for the 5HT1Dα, receptor, designated as Ltk−8-30-84, was deposited on Apr. 17, 1990, and accorded ATCC Accession No. CRL 10421. The cell for the 5HT1Dβ receptor, designated as Ltk−11, was deposited on Apr. 17, 1990, and accorded ATCC Accession No. CRL 10422. The cell line for the 5HT1E receptor, designated 5 HT1E-7, was deposited on Nov. 6, 1991, and accorded ATCC Accession No. CRL 10913. The cell line for the 5HT1F receptor, designated L-5-HT1F, was deposited on Dec. 27, 1991, and accorded ATCC Accession No. ATCC 10957. Membrane preparations comprising these receptors were prepared as described below, and suspended in 50 mM Tris-HCl buffer (pH 7.4 at 37° C.) containing 10 mM MgCl2, 0.2 mM EDTA, 10 μM pargyline, and 0.1% ascorbate. The binding of compounds was determined in competition binding assays by incubation for 30 minutes at 37° C. in the presence of 5 nM [^3H) serotonin. Nonspecific binding was determined in the presence of 10 μM serotonin. The bound radioligand was separated by filtration through GF/B filters using a cell harvester.

human α2C receptor = target: T8, human α2C receptor (Homo sapiens, UniProt P18825); test: Binding to cloned human α2C adrenergic receptor ([3H]rauwolscine)
T8 construct: expressed in transfected cells
T8 sequence (P18825 whole entry): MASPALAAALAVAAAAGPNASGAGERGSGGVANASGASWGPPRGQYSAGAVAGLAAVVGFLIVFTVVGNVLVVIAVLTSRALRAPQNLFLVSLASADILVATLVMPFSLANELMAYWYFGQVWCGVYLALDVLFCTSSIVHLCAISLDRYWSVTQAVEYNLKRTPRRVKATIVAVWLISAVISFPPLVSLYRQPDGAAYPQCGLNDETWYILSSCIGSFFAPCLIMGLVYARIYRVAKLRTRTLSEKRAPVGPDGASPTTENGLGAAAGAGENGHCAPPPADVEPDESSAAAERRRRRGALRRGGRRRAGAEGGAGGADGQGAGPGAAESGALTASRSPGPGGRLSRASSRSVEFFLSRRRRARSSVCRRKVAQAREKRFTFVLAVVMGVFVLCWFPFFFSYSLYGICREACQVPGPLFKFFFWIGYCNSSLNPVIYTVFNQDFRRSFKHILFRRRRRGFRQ

T1 sequence (P28221 whole entry): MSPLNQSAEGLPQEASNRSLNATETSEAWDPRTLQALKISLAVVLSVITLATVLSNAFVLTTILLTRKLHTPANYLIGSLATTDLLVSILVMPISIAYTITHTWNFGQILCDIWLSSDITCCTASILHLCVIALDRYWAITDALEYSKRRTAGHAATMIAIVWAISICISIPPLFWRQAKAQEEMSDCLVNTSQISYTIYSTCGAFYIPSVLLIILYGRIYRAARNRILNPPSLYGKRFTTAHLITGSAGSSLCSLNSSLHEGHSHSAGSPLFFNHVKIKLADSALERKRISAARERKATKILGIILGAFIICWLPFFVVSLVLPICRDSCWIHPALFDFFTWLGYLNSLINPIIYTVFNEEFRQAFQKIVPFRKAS

Receptor (pKi) 5HT1Dα (human 5HT1Dα receptor)	Receptor (pKi) D3 [1]	Receptor (pKi) α1a (human α1a receptor)	Ki (human Y2 receptor) [nM]	Ki (human Y4 receptor) [nM]	Receptor (pKi) 5HT7 (human 5HT7 receptor)	Receptor (pKi) 5HT1F (human 5HT1F receptor)	Receptor (pKi) α2c (human α2C receptor)	SMILES	Two-hour food intake, percentage of intake compared to control rats, Mean (%) [2] [%]
6.04	6.69	7.47	955	11700	6.42	≤ 5.30	–	Cl.O=S(=O)(NCC1CCC(CNCC2CCc3ccccc3C2)CC1)c1cccc2ccccc12 (centres unmarked) [Example 32]	36
5.94	6.35	7.72	7760	20400	6.37	≤ 5.30	7.39	Cl.O=[N+]([O-])c1ccccc1S(=O)(=O)NCC1CCC(CNCC2CCc3ccccc3C2)CC1 (centres unmarked) [Example 36]	35
